Measured values: patent US8119628B2, “Pyrrolidine fused indolobenzadiazepine HCV NS5B inhibitors” (Bristol-Myers Squibb Company, priority 2008, dated 2012)

Assays:
HCV NS5B = biological target: T1, HCV NS5B (Hepatitis C virus genotype 1b, UniProt Q9WMX2); experiment: Modified HCV NS5B RdRp enzyme assay (preincubation protocol); type: biochemical; details: HCV NS5B RdRp genotype 1b
T1 construct: The protein was expressed with an 18 amino acid C-terminal truncation to enhance the solubility; made in house; host or cells: E. coli BL21(DE3)
T1 sequence (Q9WMX2 2420-2992): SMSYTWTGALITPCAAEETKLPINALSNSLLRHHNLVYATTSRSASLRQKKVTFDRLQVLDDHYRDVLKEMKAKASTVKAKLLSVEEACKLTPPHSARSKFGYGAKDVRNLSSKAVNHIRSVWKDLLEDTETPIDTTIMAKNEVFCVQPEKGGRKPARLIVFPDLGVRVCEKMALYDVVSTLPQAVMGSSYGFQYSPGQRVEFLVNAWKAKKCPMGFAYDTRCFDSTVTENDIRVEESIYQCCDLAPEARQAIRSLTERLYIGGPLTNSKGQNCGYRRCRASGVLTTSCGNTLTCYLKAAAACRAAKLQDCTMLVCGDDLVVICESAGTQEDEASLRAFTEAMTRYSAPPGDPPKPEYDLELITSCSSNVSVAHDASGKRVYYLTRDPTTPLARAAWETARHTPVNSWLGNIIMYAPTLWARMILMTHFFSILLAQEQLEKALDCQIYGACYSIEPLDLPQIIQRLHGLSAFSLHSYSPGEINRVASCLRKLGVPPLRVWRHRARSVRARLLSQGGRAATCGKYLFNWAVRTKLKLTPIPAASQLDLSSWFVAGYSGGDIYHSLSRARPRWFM
Experimental: HCV NS5B RdRp cloning, expression, and purification. The cDNA encoding the NS5B protein of HCV, genotype 1b, was cloned into the pET21a expression vector. The protein was expressed with an 18 amino acid C-terminal truncation to enhance the solubility. The E. coli competent cell line BL21(DE3) was used for expression of the protein. Cultures were grown at 37° C. for ˜4 hours until the cultures reached an optical density of 2.0 at 600 nm. The cultures were cooled to 20° C. and induced with 1 mM IPTG. Fresh ampicillin was added to a final concentration of 50 μg/ml and the cells were grown overnight at 20° C.
Cell pellets (3 L) were lysed for purification to yield 15-24 […] of purified NS5B. The lysis buffer consisted of 20 mM Tris-HCl, pH 7.4, 500 mM NaCl, 0.5% triton X-100, 1 mM DTT, 1 mM EDTA, 20% glycerol, 0.5 mg/ml lysozyme, 10 mM MgCl2, 15 ug/ml deoxyribonuclease I, and Complete TM protease inhibitor tablets (Roche). After addition of the lysis buffer, frozen cell pellets were resuspended using a tissue homogenizer. To reduce the viscosity of the sample, aliquots of the lysate were sonicated on ice using a microtip attached to a Branson sonicator. The sonicated lysate was centrifuged at 100,000×g for 1 hr at 4° C. and filtered through a 0.2 μm filter unit (Corning).
The protein was purified using three sequential chromatography steps: Heparin sepharose CL-6B, polyU sepharose 4B, and Hitrap SP sepharose (Pharmacia). The chromatography buffers were identical to the lysis buffer but contained no lysozyme, deoxyribonuclease I, MgCl2 or protease inhibitor and the NaCl concentration of the buffer was adjusted according to the requirements for charging the protein onto the column. Each column was eluted with a NaCl gradient which varied in length from 5-50 column volumes depending on the column type. After the final chromatography step, the resulting purity of the enzyme is >90% based on SDS-PAGE analysis. The enzyme was aliquoted and stored at −80° C.
Standard HCV NS5B RdRp enzyme assay. HCV RdRp genotype 1b assays were run in a final volume of 60 μl in 96 well plates (Costar 3912). The assay buffer is composed of 20 mM Hepes, pH 7.5, 2.5 mM KCl, 2.5 mM MgCl2, 1 mM DTT, 1.6 U RNAse inhibitor (Promega N2515), 0.1 mg/ml BSA (Promega R3961), and 2% glycerol. All compounds were serially diluted (3-fold) in DMSO and diluted further in water such that the final concentration of DMSO in the assay was 2%. HCV RdRp genotype 1b enzyme was used at a final concentration of 28 nM. A polyA template was used at 6 nM, and a biotinylated oligo-dT12 primer was used at 180 nM final concentration. Template was obtained commercially (Amersham 27-4110). Biotinylated primer was prepared by Sigma Genosys. 3H-UTP was used at 0.6 μCi (0.29 μM total UTP). Reactions were initiated by the addition of enzyme, incubated at 30° C. for 60 min, and stopped by adding 25 μl of 50 mM EDTA containing SPA beads (4 μg/μl, Amersham RPNQ 0007). Plates were read on a Packard Top Count NXT after >1 hr incubation at room temperature.
Modified HCV NS5B RdRp enzyme assay. A modified enzyme assay was performed essentially as described for the standard enzyme assay except for the following: The biotinylated oligo dTl2 primer was precaptured on streptavidin-coated SPA beads by mixing primer and beads in assay buffer and incubating at room temperature for one hour. Unbound primer was removed after centrifugation. The primer-bound beads were resuspended in 20 mM Hepes buffer, pH 7.5 and used in the assay at final concentrations of 20 nM primer and […] beads. Order of addition in the assay: enzyme (14 nM) was added to diluted compound followed by the addition of a mixture of template (0.2 nM), 3H-UTP (0.6 μCi, 0.29 μM), and primer-bound beads, to initiate the reaction; concentrations given are final. Reactions were allowed to proceed for 4 hours at 30° C.
IC50 values for compounds were determined using seven different. […]

HCV replicon cells = experiment: HCV FRET assay in HCV replicon cells; type: cell-based; details: Hepatitis C virus
From the text: FRET Assay Preparation. To perform the HCV FRET screening assay, 96-well cell culture plates were used. The FRET peptide (Anaspec, Inc.) (Taliani et al., Anal. Biochem. 1996, 240, 60-67) contains a fluorescence donor, EDANS, near one end of the peptide and an acceptor, DABCYL, near the other end. The fluorescence of the peptide is quenched by […] resonance energy transfer (RET) between the donor and the acceptor, but as the NS3 protease cleaves the peptide the products are released from RET quenching and the fluorescence of the donor becomes apparent. The assay reagent was made as follows: 5× cell Luciferase cell culture lysis reagent from Promega (#E153A) diluted to 1× with dH2O, NaCl added to 150 mM final, the FRET peptide diluted to 20 uM final from a 2 mM stock.
To prepare plates, HCV replicon cells, with or without a Renilla luciferase reporter gene, were trypsinized and placed into each well of a 96-well plate with titrated test compounds added in columns 3 through 12; columns 1 and 2 contained a control compound (HCV protease inhibitor), and the bottom row contained cells without compound. The plates were then placed in a CO2 incubator at 37° C.
Assays. Subsequent to addition of the test compounds described above (FRET Assay Preparation), at various times the plate was removed and Alamar blue solution (Trek Diagnostics, #00-100) was added per well as a measure of cellular toxicity. After reading in a Cytoflour 4000 instrument (PE Biosystems), plates were rinsed with PBS and then used for FRET assay by the addition of 30 ul of the FRET peptide assay reagent described above (FRET Assay Preparation) per well. The plate was then placed into the Cytoflour 4000 instrument which had been set to 340 excite/490 emission, automatic mode for 20 cycles and the plate read in a kinetic mode. Typically, the signal to noise using an endpoint analysis after the reads was at least three-fold. Alternatively, after Alamar blue reading, plates were rinsed with PBS, 50 ul of DMEM (high glucose) without phenol red was added and plates were then used for luciferase assay using the Promega Dual-Glo Luciferase Assay System.
Compound analysis was determined by quantification of the relative HCV replicon inhibition and the relative cytotoxicity values. To calculate cytoxicity values, the average Alamar Blue fluorescence signals from the control wells were set as 100% non-toxic. The individual signals in each of the compound test wells were then divided by the average control signal and multiplied by 100% to determine […]. To calculate the HCV replicon inhibition values, an average background value was obtained from the two wells containing the highest amount of HCV protease inhibitor at the end of the assay period. These numbers were similar to those obtained from naïve Huh-7 cells.
The background numbers were then subtracted from the average signal obtained from the control wells and this number was used as 100% activity. The individual signals in each of the compound test wells were then divided by the averaged control values after background subtraction and multiplied by 100% to determine percent activity. EC50 values for a protease inhibitor titration were calculated as the concentration which caused a 50% reduction in FRET or luciferase activity. The two numbers generated for the compound plate, percent cytoxicity and percent activity were used to determine compounds of interest for further analysis.

Row | SMILES | IC50 (HCV NS5B; reported as class) | EC50 (HCV replicon cells; reported as class) | IC50 (HCV NS5B) | EC50 (HCV replicon cells)
1 | COc1ccc2c(c1)C1CN(C(=O)N(C)C)CC1(C(=O)N1C[C@@H](C)O[C@@H](C)C1)Cn1c-2c(C2CCCCC2)c2ccc(C(=O)NS(=O)(=O)N(C)C)cc21 (mixture of isomers) [Example 11, rac-(3aR,14bR)-10-cyclohexyl-3a-(((2S,6R)-2,6-dimethyl-4-morpholinyl)carbonyl)-N^7-(dimethylsulfamoyl)-13-methoxy-N^2,N^2-dimethyl-1,3a,4,14b-tetrahydroindolo[2,1-c]pyrrolo[3,4-d][2]benzazepine-2,7(3H)-dicarboxamide] | 20 to 500 nM | 20 to 500 nM |  | 
2 | COc1ccc2c(c1)C1CN(C(=O)C(=O)N(C)C)CC1(C(=O)N(C)C)Cn1c-2c(C2CCCCC2)c2ccc(C(=O)NS(=O)(=O)N(C)C)cc21 (racemic) [Example 15, rac-(3aR,14bR)-10-Cyclohexyl-2-((dimethylamino)(oxo)acetyl)-N^7-(dimethylsulfamoyl)-13-methoxy-N^3a,N^3a-dimethyl-1,2,3,14b-tetrahydroindolo[2,1-a]pyrrolo[3,4-d][2]benzazepine-3a,7(4H)-dicarboxamide] | 20 to 500 nM | 20 to 500 nM |  | 
3 | COc1ccc2c(c1)C1CN(C(=O)CN(C)C)CC1(C(=O)N(C)C)Cn1c-2c(C2CCCCC2)c2ccc(C(=O)NS(=O)(=O)N(C)C)cc21 (racemic) [Example 14, rac-(3aR,14bR)-10-Cyclohexyl-2-(N,N-dimethylglycyl)-N^7-(dimethylsulfamoyl)-13-methoxy-N^3a,N^3a-dimethyl-1,2,3,14b-tetrahydroindolo[2,1-a]pyrrolo[3,4-d][2]benzazepine-3a,7(4H)-dicarboxamide] |  |  | 51 nM | 47 nM
4 | COc1ccc2c(c1)C1CN(C(C)=O)CC1(C(=O)N(C)C)Cn1c-2c(C2CCCCC2)c2ccc(C(=O)NS(=O)(=O)N(C)C)cc21 (racemic) [Example 9, rac-(3aR,14bR)-2-acetyl-10-cyclohexyl-N^7-(dimethylsulfamoyl)-13-methoxy-N^3a,N^3a-dimethyl-1,2,3,14b-tetrahydroindolo[2,1-a]pyrrolo[3,4-d][2]benzazepine-3a,7(4H)-dicarboxamide] | 20 to 500 nM | 20 to 500 nM |  | 
5 | COc1ccc2c(c1)C1CN(C)CC1(C(=O)N(C)C)Cn1c-2c(C2CCCCC2)c2ccc(C(=O)NS(=O)(=O)N(C)C)cc21 (racemic) [Example 10, rac-(3aR,14bR)-10-Cyclohexyl-N^7-(dimethylsulfamoyl)-13-methoxy-N^3a,N^3a,2-trimethyl-1,2,3,14b-tetrahydroindolo[2,1-a]pyrrolo[3,4-d][2]benzazepine-3a,7(4H)-dicarboxamide] |  |  | 37 nM | 26 nM
6 | COc1ccc2c(c1)C1CN(C(=O)[C@@H]3CCCN3C)CC1(C(=O)N(C)C)Cn1c-2c(C2CCCCC2)c2ccc(C(=O)NS(=O)(=O)N(C)C)cc21 (mixture of isomers) [Example 19, rac-(3aR,14bR)-10-cyclohexyl-N^7-(dimethylsulfamoyl)-13-methoxy-N^3a,N^3a-dimethyl-2-(1-methyl-L-prolyl)-1,2,3,14b-tetrahydroindolo[2,1-a]pyrrolo[3,4-d][2]benzazepine-3a,7(4H)-dicarboxamide] |  |  | 61 nM | 63 nM
7 | COc1ccc2c(c1)C1CN(C(C)=O)CC1(C(=O)N1C[C@@H](C)O[C@@H](C)C1)Cn1c-2c(C2CCCCC2)c2ccc(C(=O)NS(=O)(=O)N(C)C)cc21 (mixture of isomers) [Example 4, rac-(3aR,14bR)-2-Acetyl-10-cyclohexyl-3a-(((2S,6R)-2,6-dimethyl-4-morpholinyl)carbonyl)-N-(dimethylsulfamoyl)-13-methoxy-1,2,3,3a,4,14b-hexahydroindolo[2,1-a]pyrrolo[3,4-d][2]benzazepine-7-carboxamide] | 20 to 500 nM | 20 to 500 nM |  | 
8 | COc1ccc2c(c1)C1CN(C)CC1(C(=O)N1C[C@@H](C)O[C@@H](C)C1)Cn1c-2c(C2CCCCC2)c2ccc(C(=O)NS(=O)(=O)N(C)C)cc21 (mixture of isomers) [Example 3, rac-(3aR,14bR)-10-Cyclohexyl-3a-(((2S,6R)-2,6-dimethyl-4-morpholinyl)carbonyl)-N-(dimethylsulfamoyl)-13-methoxy-2-methyl-1,2,3,3a,4,14b-hexahydroindolo[2,1-a]pyrrolo[3,4-d][2]benzazepine-7-carboxamide] | 20 to 500 nM | 20 to 500 nM |  | 
9 | COc1ccc2c(c1)C1CN(C(C)CN(C)C)CC1(C(=O)N1C[C@@H](C)O[C@@H](C)C1)Cn1c-2c(C2CCCCC2)c2ccc(C(=O)NS(=O)(=O)N(C)C)cc21 (mixture of isomers) [Example 12, rac-(3aR,14bR)-10-cyclohexyl-2-(2-(dimethylamino)-1-methylethyl)-3a-(((2S,6R)-2,6-dimethyl-4-morpholinyl)carbonyl)-N-(dimethylsulfamoyl)-13-methoxy-1,2,3,3a,4,14b-hexahydroindolo[2,1-a]pyrrolo[3,4-d][2]benzazepine-7-carboxamide] | 20 to 500 nM | 20 to 500 nM |  | 
